We go through 24 compounds from patent US8901118B2, “Compounds and methods for kinase modulation, and indications therefor” (Plexxikon Inc., priority 2010, dated 2014).

One assay addresses CYP2C9 (Homo sapiens, UniProt P11712). The experiment in a line: CYP2C9 inhibition (fluorescent substrate MFC). It counts as in vitro ADME. Particulars: read-out: Cyp IC50 2C9. Put shortly:
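10-pt 1:1 dilution series (from 100 mM DMSO stock) in NADPH regen cofactor mix, 5% MeCN; 10 min preincubation at 37 °C. Enzyme reaction 37 °C: 1A2 15 min, 2C9 45 min, 2C19/2D6 30 min. Fluorescence readout; IC50 fit.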

The target of the next assay is T1, BCR-NTRK2 BaF3 cells (Homo sapiens, UniProt Q16620).
T1 construct: fused on or other part: P11274 (Breakpoint cluster region protein)
The experiment in a line: BaF3 BCR-NTRK2 cell proliferation assay (ATPlite). Format: cell-based. Particulars: read-out: Inhibition of Cell Proliferation IC50, BCR/BaF3 TrkB. Put shortly:
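IL-3-free growth, 3-day compound exposure (8-point 1:3 titration, top 10 μM, DMSO control), 37 °C 5% CO2. BaF3 10,000 or MV-4-11 25,000 cells/well, plated overnight beforehand. Read-out ATPlite luminescence vs concentration → IC50.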
In general terms: ATP-based viability assays read luminescence as a measure of living cells.

T1 sequence (Q16620 538-807): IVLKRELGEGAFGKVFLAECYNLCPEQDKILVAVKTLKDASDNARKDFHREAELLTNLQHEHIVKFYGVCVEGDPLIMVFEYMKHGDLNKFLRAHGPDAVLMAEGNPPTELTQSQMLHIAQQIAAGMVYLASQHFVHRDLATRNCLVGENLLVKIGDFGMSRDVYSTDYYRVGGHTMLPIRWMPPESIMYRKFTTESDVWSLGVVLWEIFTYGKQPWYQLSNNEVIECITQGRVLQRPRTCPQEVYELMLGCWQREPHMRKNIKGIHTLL
Sequence of CYP2C9 (P11712 whole entry): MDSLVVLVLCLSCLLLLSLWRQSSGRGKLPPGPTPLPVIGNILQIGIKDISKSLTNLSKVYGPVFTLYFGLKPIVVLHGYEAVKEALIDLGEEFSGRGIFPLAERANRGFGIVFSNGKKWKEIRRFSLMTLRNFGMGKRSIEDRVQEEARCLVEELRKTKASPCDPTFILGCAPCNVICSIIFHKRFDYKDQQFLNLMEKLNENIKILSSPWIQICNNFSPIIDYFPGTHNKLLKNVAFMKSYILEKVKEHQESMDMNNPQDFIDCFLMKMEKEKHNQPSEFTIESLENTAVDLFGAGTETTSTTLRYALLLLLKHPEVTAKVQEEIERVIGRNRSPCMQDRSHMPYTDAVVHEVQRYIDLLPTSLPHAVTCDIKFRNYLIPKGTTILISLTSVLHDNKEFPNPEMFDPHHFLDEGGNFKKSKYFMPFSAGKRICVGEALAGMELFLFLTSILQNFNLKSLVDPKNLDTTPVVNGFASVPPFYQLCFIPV

For the compound `CCCNc1ncnc2[nH]cc(C(=O)c3ccc(Nc4cncc(OC)c4)nc3F)c12` [Compound P-4105, [2-fluoro-6-[(5-methoxy-3-pyridyl)amino]-3-pyridyl]-[4-(propylamino)-7H-pyrrolo[2,3-d]pyrimidin-5-yl]methanone], the IC50 at CYP2C9 is > 10 µM; on BCR-NTRK2 BaF3 cells, < 1 µM.
In the same order, the values of `Fc1nc(NC2CCC(F)(F)CC2)ccc1Cc1c[nH]c2ncc(Cl)cc12` [Compound P-3013, [5-(5-Chloro-1H-pyrrolo[2,3-b]pyridin-3-ylmethyl)-6-fluoro-pyridin-2-yl]-(4,4-difluoro-cyclohexyl)-amine] are > 10 µM and > 10 µM.
The matching figures for `COc1cncc(Nc2ccc(C(=O)c3c[nH]c4ncnc(NC(C)C)c34)c(F)n2)c1` [Compound P-4106, [2-fluoro-6-[(5-methoxy-3-pyridyl)amino]-3-pyridyl]-[4-(isopropylamino)-7H-pyrrolo[2,3-d]pyrimidin-5-yl]methanone]: < 5 µM and < 0.1 µM.
In the same order, the values of `COc1cncc(Nc2ccc(C(=O)c3c[nH]c4ncnc(NC5CC5)c34)c(F)n2)c1` [Compound P-4107, [4-(cyclopropylamino)-7H-pyrrolo[2,3-d]pyrimidin-5-yl]-[2-fluoro-6-[(5-methoxy-3-pyridyl)amino]-3-pyridyl]methanone] are < 5 µM and < 0.1 µM.
For the compound `CC(C)Nc1ncnc2[nH]cc(C(=O)c3ccc(NC4CCCCC4)nc3Cl)c12` [Compound P-4109, [2-chloro-6-(cyclohexylamino)-3-pyridyl]-[4-(isopropylamino)-7H-pyrrolo[2,3-d]pyrimidin-5-yl]methanone], the IC50 at CYP2C9 is 5 to 10 µM; on BCR-NTRK2 BaF3 cells it was < 1 µM.
Take `CCc1ccc(Nc2ccc(C(=O)c3c[nH]c4ncnc(NCC(C)(C)O)c34)c(F)n2)cn1` [Compound P-4064, [6-[(6-ethyl-3-pyridyl)amino]-2-fluoro-3-pyridyl]-[4-[(2-hydroxy-2-methyl-propyl)amino]-7H-pyrrolo[2,3-d]pyrimidin-5-yl]methanone]: the IC50 at CYP2C9 was > 10 µM; at BCR-NTRK2 BaF3 cells, < 0.01 µM.
Take `O=C(c1ccc(NC2CCC(F)(F)CC2)nc1F)c1c[nH]c2ncnc(NC3CC3)c12` [Compound P-4062, [4-(cyclopropylamino)-7H-pyrrolo[2,3-d]pyrimidin-5-yl]-[6-[(4,4-difluorocyclohexyl)amino]-2-fluoro-3-pyridyl]methanone]: the results for the IC50 on CYP2C9 and on BCR-NTRK2 BaF3 cells were > 10 µM and < 0.01 µM, respectively.
In the same order, the values of `Cc1cnc2[nH]cc(Cc3cnc(Nc4ccc(F)cc4)nc3)c2c1` [Compound P-3010, (4-Fluoro-phenyl)-[5-(5-methyl-1H-pyrrolo[2,3-b]pyridin-3-ylmethyl)-pyrimidin-2-yl]-amine] are > 10 µM and > 10 µM.
For `CNc1ncnc2[nH]cc(C(=O)c3ccc(NC4CCC(F)(F)CC4)nc3)c12` [Compound P-4089, [6-[(4,4-difluorocyclohexyl)amino]-3-pyridyl]-[4-(methylamino)-7H-pyrrolo[2,3-d]pyrimidin-5-yl]methanone], the IC50 on CYP2C9 was > 10 µM; on BCR-NTRK2 BaF3 cells it was < 0.1 µM.
The matching figures for `CCNc1ncnc2[nH]cc(C(=O)c3ccc(Nc4ccc(CC)nc4)nc3F)c12` [Compound P-4123, [4-(ethylamino)-7H-pyrrolo[2,3-d]pyrimidin-5-yl]-[6-[(6-ethyl-3-pyridyl)amino]-2-fluoro-3-pyridyl]methanone]: > 10 µM and < 0.01 µM.
The matching figures for `CCC(CC)Nc1ncnc2[nH]cc(C(=O)c3ccc(Nc4ccc(OC)nc4)nc3F)c12` [Compound P-4077, [4-(1-ethylpropylamino)-7H-pyrrolo[2,3-d]pyrimidin-5-yl]-[2-fluoro-6-[(6-methoxy-3-pyridyl)amino]-3-pyridyl]methanone]: > 10 µM and < 0.01 µM.
The matching figures for `CCc1ccc(Nc2ccc(C(=O)c3c[nH]c4ncnc(N[C@@H](C)c5ccc(F)cc5)c34)c(F)n2)cn1` [Compound P-4097, [6-[(6-ethyl-3-pyridyl)amino]-2-fluoro-3-pyridyl]-[4-[[(1S)-1-(4-fluorophenyl)ethyl]amino]-7H-pyrrolo[2,3-d]pyrimidin-5-yl]methanone]: < 5 µM and < 0.1 µM.
For `CCC(C)Nc1ncnc2[nH]cc(C(=O)c3ccc(Nc4ccc(OC)nc4)nc3F)c12` (stereo not drawn) [Compound P-4078, [2-fluoro-6-[(6-methoxy-3-pyridyl)amino]-3-pyridyl]-[4-(sec-butylamino)-7H-pyrrolo[2,3-d]pyrimidin-5-yl]methanone], the IC50 was > 10 µM on CYP2C9 and < 0.01 µM on BCR-NTRK2 BaF3 cells.
The matching figures for `COc1ccc(Nc2ccc(C(=O)c3c[nH]c4ncnc(NCC5CCCO5)c34)c(F)n2)cn1` (stereo not drawn) [Compound P-4073, [2-fluoro-6-[(6-methoxy-3-pyridyl)amino]-3-pyridyl]-[4-(tetrahydrofuran-2-ylmethylamino)-7H-pyrrolo[2,3-d]pyrimidin-5-yl]methanone]: > 10 µM and < 0.01 µM.
With `CCc1ccc(Nc2ccc(C(=O)c3c[nH]c4ncnc(NC5CCC(F)(F)CC5)c34)c(F)n2)cn1` [Compound P-4096, [4-[(4,4-difluorocyclohexyl)amino]-7H-pyrrolo[2,3-d]pyrimidin-5-yl]-[6-[(6-ethyl-3-pyridyl)amino]-2-fluoro-3-pyridyl]methanone], the IC50 at CYP2C9 is < 5 µM; on BCR-NTRK2 BaF3 cells it was < 0.01 µM.
The matching figures for `CNc1ncnc2[nH]cc(C(=O)c3ccc(Nc4ccc(C)nc4)nc3F)c12` [Compound P-4115, [2-fluoro-6-[(6-methyl-3-pyridyl)amino]-3-pyridyl]-[4-(methylamino)-7H-pyrrolo[2,3-d]pyrimidin-5-yl]methanone]: < 5 µM and < 0.1 µM.
In the same order, the values of `CCc1ccc(Nc2ccc(C(=O)c3c[nH]c4ncnc(NCC5CC5)c34)c(F)n2)cn1` [Compound P-4118, [4-(cyclopropylmethylamino)-7H-pyrrolo[2,3-d]pyrimidin-5-yl]-[6-[(6-ethyl-3-pyridyl)amino]-2-fluoro-3-pyridyl]methanone] are > 10 µM and < 0.01 µM.
The matching figures for `CCN1CCC(Nc2ncnc3[nH]cc(C(=O)c4ccc(Nc5ccc(OC)nc5)nc4F)c23)CC1` [Compound P-4074, [4-[(1-ethyl-4-piperidyl)amino]-7H-pyrrolo[2,3-d]pyrimidin-5-yl]-[2-fluoro-6-[(6-methoxy-3-pyridyl)amino]-3-pyridyl]methanone]: > 10 µM and < 0.1 µM.
With `CCc1ccc(Nc2ccc(C(=O)c3c[nH]c4ncnc(NCCCOC)c34)c(F)n2)cn1` [Compound P-4098, [6-[(6-ethyl-3-pyridyl)amino]-2-fluoro-3-pyridyl]-[4-(3-methoxypropylamino)-7H-pyrrolo[2,3-d]pyrimidin-5-yl]methanone], the results for the IC50 at CYP2C9 and at BCR-NTRK2 BaF3 cells were < 5 µM and < 0.01 µM, respectively.
Turning to `COc1ccc(Nc2ccc(C(=O)c3c[nH]c4ncnc(N5CCCCC5)c34)c(F)n2)cn1` [Compound P-4069, [2-fluoro-6-[(6-methoxy-3-pyridyl)amino]-3-pyridyl]-[4-(1-piperidyl)-7H-pyrrolo[2,3-d]pyrimidin-5-yl]methanone], the IC50 on CYP2C9 was > 10 µM; at BCR-NTRK2 BaF3 cells, > 1 µM.
With `CCc1ccc(Nc2ccc(C(=O)c3c[nH]c4ncnc(NCCOC)c34)c(F)n2)cn1` [Compound P-4119, [6-[(6-ethyl-3-pyridyl)amino]-2-fluoro-3-pyridyl]-[4-(2-methoxyethylamino)-7H-pyrrolo[2,3-d]pyrimidin-5-yl]methanone], the IC50 at CYP2C9 is > 10 µM; on BCR-NTRK2 BaF3 cells it was < 0.01 µM.
In the case of `CCNc1ncnc2[nH]cc(C(=O)c3ccc(Nc4ccc(C5CC5)nc4)nc3F)c12` [Compound P-4060, [6-[(6-cyclopropyl-3-pyridyl)amino]-2-fluoro-3-pyridyl]-[4-(ethylamino)-7H-pyrrolo[2,3-d]pyrimidin-5-yl]methanone], the IC50 was > 10 µM on CYP2C9 and < 0.01 µM at BCR-NTRK2 BaF3 cells.
In the case of `O=C(c1ccc(NC2CCC(F)(F)CC2)nc1F)c1c[nH]c2ncnc(NCC(F)(F)F)c12` [Compound P-4061, [6-[(4,4-difluorocyclohexyl)amino]-2-fluoro-3-pyridyl]-[4-(2,2,2-trifluoroethylamino)-7H-pyrrolo[2,3-d]pyrimidin-5-yl]methanone], the results for the IC50 on CYP2C9 and at BCR-NTRK2 BaF3 cells were > 10 µM and < 0.01 µM, respectively.
In the same order, the values of `CNc1ncnc2[nH]cc(C(=O)c3ccc(NC4CCCCC4)nc3Cl)c12` [Compound P-4110, [2-chloro-6-(cyclohexylamino)-3-pyridyl]-[4-(methylamino)-7H-pyrrolo[2,3-d]pyrimidin-5-yl]methanone] are < 5 µM and > 1 µM.
